In patent US20230174584A1, “Antibiotic Compounds” (priority 2019, published 2023):
Converted amounts (≈) assume the structure as drawn.

Key:
Experiment in all cases: MIC assay, VISA and VRSA panel
Assay type in all cases: cell-based, Staphylococcus aureus
VRS11b = tested on: VRS11b
Experimental: (§1) The antibacterial activity of the compounds was tested against a panel of bacteria, including Gram-positive bacteria (S. aureus ATCC29213, S. aureus USA300, S. aureus LIM-2, NR-45881, S. aureus HIP13419, NR-46413, E. faecium E155, E. faecium E7314, E. faecium E980, E. faecalis E1246, E. faecalis E7406 and S. pneumonia 153). The antibacterial activity of the compounds was further tested against S. aureus NY-155, NR-46236, S. aureus HIP12864, NR-46074, S. aureus 880 (BR-VRSA), NR-49120, E. faecalis E1246, E. faecalis E7604, as well as some Gram-negative bacteria (Escherichia coli and Klebsiella pneumoniae). Minimum inhibitory concentrations (MICs) in μg/mL were performed according to the CLSI guidelines. From glycerol stocks, bacterial strains were cultured on blood agar plates and incubated at 37° C. for 18 h. A single colony was transferred to tryptic soy broth (TSB) with 0.002% polysorbate 80 (p80). For the Enterococcus, VISA and VRSA strains, the cultures were grown at 37° C. until the optical density of the suspension reached a level equivalent to the 0.5 McFarland standard. The bacterial suspensions were diluted in TSB with 0.002% p80 to reach a bacterial cell density of 10^6 CFU/mL. In case of the other (vancomycin-sensitive) S. aureus strains, the direct colony suspension method was used. For these strains, after transfer of the colonies to TSB with 0.002% p80, they were immediately diluted to 10^6 CFU/mL, instead of incubated prior to this dilution. In the case of S. pneumonia, direct colony suspension was used by immediately suspending multiple colonies from fresh blood agar plates in TSB+0.002% p80 to an OD600 of 0.5 and subsequent dilution to 10^6 CFU mL^−1 in TSB+0.002% p80+5% lysed horse blood. Antibiotic dilutions for this strains were also made in TSB+0.002% p80+5% lysed horse blood. Both agar and microplates containing S. pneumonia were incubated at 37° C. with 5% CO2 for 24 h with constant shaking (600 rpm). […] The cultures were grown to exponential phase (OD600=0.5) at 37° C. […] In polypropylene 96-well microtiter plates, test compounds were added in biological triplicates and serial diluted 2-fold by transfer and mixing from one well to the next to achieve a final volume of 50 μL per well. An equal volume of bacterial suspension (10^6 CFU mL^−1) was added to the wells. The plates were sealed with breathable membranes and incubated at 37° C. for 24 h with constant shaking (600 rpm). In polypropylene microtiter plates, 100 μL of the test compounds was added to the first row in biological triplicates, and 50 μL of media was added to the other wells. The compounds were subjected to serial dilution by transfer and mixing of 50 μL from one well to the next. Subsequently, 50 μL of bacterial suspension (10^6 CFU/mL) was added to the wells. The plates were sealed with breathable membranes and incubated at 37° C. for 24 h with constant shaking (600 rpm). Positive growth control consisted of wells with bacterial suspension and without antibiotic. Negative growth control consisted of solely media without bacterial suspension or antibiotic. The MICs were determined from the median of a minimum of triplicates.

NRS19 = tested on: NRS19
Experimental: as §1

VRS1 = tested on: VRS1
Experimental: as §1

VRS7 = tested on: VRS7
Experimental: as §1

VRS4 = tested on: VRS4
Experimental: as §1

NRS51 = tested on: NRS51
Experimental: as §1

NRS63SH = tested on: NRS63SH
Experimental: as §1

VRS5 = tested on: VRS5
Experimental: as §1

VRS3a = tested on: VRS3a
Experimental: as §1

VRS8 = tested on: VRS8
Experimental: as §1

VRS11a = tested on: VRS11a
Experimental: as §1

VRSA3b = tested on: VRSA3b
Experimental: as §1

VRS9 = tested on: VRS9
Experimental: as §1

NRS17 = tested on: NRS17
Experimental: as §1

NRS52 = tested on: NRS52
Experimental: as §1

NRS18 = tested on: NRS18
Experimental: as §1

| SMILES | MIC (VRS11b; strain VRS11b) [µg/mL] | MIC (NRS19; strain NRS19) [µg/mL] | MIC (VRS1; strain VRS1) [µg/mL] | MIC (VRS7; strain VRS7) [µg/mL] | MIC (VRS11b; Staphylococcus aureus) [µg/mL] | MIC (NRS19; Staphylococcus aureus, NRS19) [µg/mL] | MIC (VRS1; Staphylococcus aureus) [µg/mL] | MIC (VRS7; Staphylococcus aureus) [µg/mL] | MIC (VRS4; Staphylococcus aureus) [µg/mL] | MIC (NRS51; Staphylococcus aureus, NRS51) [µg/mL] | MIC (NRS63SH; Staphylococcus aureus) [µg/mL] | MIC (VRS5; Staphylococcus aureus) [µg/mL] | MIC (VRS3a; Staphylococcus aureus) [µg/mL] | MIC (VRS8; Staphylococcus aureus) [µg/mL] | MIC (VRS11a; Staphylococcus aureus) [µg/mL] | MIC (VRSA3b; Staphylococcus aureus) [µg/mL] | MIC (VRS9; Staphylococcus aureus) [µg/mL] | MIC (NRS17; Staphylococcus aureus, NRS17) [µg/mL] | MIC (NRS52; Staphylococcus aureus, NRS52) [µg/mL] | MIC (NRS18; Staphylococcus aureus, NRS18) [µg/mL] | further results |
| --- | --- | --- | --- | --- | --- | --- | --- | --- | --- | --- | --- | --- | --- | --- | --- | --- | --- | --- | --- | --- | --- |
| CCCCCCCNC(N)=Nc1ccc(CN[C@@]2(C)C[C@H](O[C@H]3[C@H](Oc4c5cc6cc4Oc4ccc(cc4Cl)[C@@H](O)[C@@H](NC(=O)[C@@H](CC(C)C)NC)C(=O)N[C@@H](CC(N)=O)C(=O)N[C@H]6C(=O)N[C@H]4C(=O)N[C@H](C(=O)N[C@H](C(=O)O)c6cc(O)cc(O)c6-c6cc4ccc6O)[C@H](O)c4ccc(c(Cl)c4)O5)O[C@H](CO)[C@@H](O)[C@@H]3O)O[C@@H](C)[C@H]2O)cc1 [Compound 5] | 16 (≈ 9.44 µM) | 0.063 (≈ 0.0372 µM) | 16 (≈ 9.44 µM) | 4 (≈ 2.36 µM) | – | – | – | – | – | – | – | – | – | – | – | – | – | – | – | – | MIC (VRS4; strain VRS4): 8 µg/mL (≈ 4.72 µM); MIC (NRS51; strain NRS51): 0.031 µg/mL (≈ 0.0183 µM); MIC (NRS63SH; strain NRS63SH): 8 µg/mL (≈ 4.72 µM); MIC (VRS5; strain VRS5): 4 µg/mL (≈ 2.36 µM); MIC (VRS3a; strain VRS3a): 0.25 µg/mL (≈ 0.148 µM); MIC (VRS8; strain VRS8): 16 µg/mL (≈ 9.44 µM); MIC (VRS11a; strain VRS11a): 16 µg/mL (≈ 9.44 µM); MIC (VRSA3b; strain VRSA3b): 1 µg/mL (≈ 0.59 µM); MIC (VRS9; strain VRS9): 16 µg/mL (≈ 9.44 µM); MIC (NRS17; strain NRS17): 0.25 µg/mL (≈ 0.148 µM); MIC (NRS52; strain NRS52): 0.031 µg/mL (≈ 0.0183 µM); MIC (NRS18; strain NRS18): 0.125 µg/mL (≈ 0.0738 µM) |
| CCCCCCN(CCCCCC)C(N)=Nc1ccc(CN[C@@]2(C)C[C@H](O[C@H]3[C@H](Oc4c5cc6cc4Oc4ccc(cc4Cl)[C@@H](O)[C@@H](NC(=O)[C@@H](CC(C)C)NC)C(=O)N[C@@H](CC(N)=O)C(=O)N[C@H]6C(=O)N[C@H]4C(=O)N[C@H](C(=O)N[C@H](C(=O)O)c6cc(O)cc(O)c6-c6cc4ccc6O)[C@H](O)c4ccc(c(Cl)c4)O5)O[C@H](CO)[C@@H](O)[C@@H]3O)O[C@@H](C)[C@H]2O)cc1 [Compound 12] | 4 (≈ 2.27 µM) | 0.25 (≈ 0.142 µM) | 4 (≈ 2.27 µM) | 2 (≈ 1.13 µM) | – | – | – | – | – | – | – | – | – | – | – | – | – | – | – | – | MIC (VRS4; strain VRS4): 2 µg/mL (≈ 1.13 µM); MIC (NRS51; strain NRS51): 0.125 µg/mL (≈ 0.0708 µM); MIC (NRS63SH; strain NRS63SH): 2 µg/mL (≈ 1.13 µM); MIC (VRS5; strain VRS5): 1 µg/mL (≈ 0.567 µM); MIC (VRS3a; strain VRS3a): <0.016 µg/mL; MIC (VRS8; strain VRS8): 4 µg/mL (≈ 2.27 µM); MIC (VRS11a; strain VRS11a): 4 µg/mL (≈ 2.27 µM); MIC (VRSA3b; strain VRSA3b): 0.25 µg/mL (≈ 0.142 µM); MIC (VRS9; strain VRS9): 4 µg/mL (≈ 2.27 µM); MIC (NRS17; strain NRS17): 0.5 µg/mL (≈ 0.283 µM); MIC (NRS52; strain NRS52): 0.031 µg/mL (≈ 0.0176 µM); MIC (NRS18; strain NRS18): 0.25 µg/mL (≈ 0.142 µM) |
| CN[C@H](CC(C)C)C(=O)N[C@H]1C(=O)N[C@@H](CC(N)=O)C(=O)N[C@H]2C(=O)N[C@H]3C(=O)N[C@H](C(=O)N[C@H](C(=O)O)c4cc(O)cc(O)c4-c4cc3ccc4O)[C@H](O[C@H]3C[C@](C)(N)[C@@H](O)[C@H](C)O3)c3ccc(c(Cl)c3)Oc3cc2cc(c3O[C@@H]2O[C@H](CO)[C@@H](O)[C@H](O)[C@H]2O[C@H]2C[C@](C)(NCc3ccc(-c4ccc(Cl)cc4)cc3)[C@@H](O)[C@H](C)O2)Oc2ccc(cc2Cl)[C@H]1O [Oritavancin] | – | – | – | – | 1 (≈ 0.558 µM) | 1 (≈ 0.558 µM) | 1 (≈ 0.558 µM) | 0.5 (≈ 0.279 µM) | 1 (≈ 0.558 µM) | 0.5 (≈ 0.279 µM) | 1 (≈ 0.558 µM) | 0.5 (≈ 0.279 µM) | 0.5 (≈ 0.279 µM) | 1 (≈ 0.558 µM) | 1 (≈ 0.558 µM) | 0.25 (≈ 0.139 µM) | 2 (≈ 1.12 µM) | 4 (≈ 2.23 µM) | 0.5 (≈ 0.279 µM) | 1 (≈ 0.558 µM) | – |
| CCCCCCCCCCNCCN[C@@]1(C)C[C@H](O[C@H]2[C@H](Oc3c4cc5cc3Oc3ccc(cc3Cl)[C@@H](O)[C@@H](NC(=O)[C@@H](CC(C)C)NC)C(=O)N[C@@H](CC(N)=O)C(=O)N[C@H]5C(=O)N[C@H]3C(=O)N[C@H](C(=O)N[C@H](C(=O)O)c5cc(O)c(CNCP(=O)(O)O)c(O)c5-c5cc3ccc5O)[C@H](O)c3ccc(c(Cl)c3)O4)O[C@H](CO)[C@@H](O)[C@@H]2O)O[C@@H](C)[C@H]1O [Telavancin, reference compound] | – | – | – | – | 8 (≈ 4.56 µM) | 0.25 (≈ 0.142 µM) | 8 (≈ 4.56 µM) | 4 (≈ 2.28 µM) | 4 (≈ 2.28 µM) | 0.125 (≈ 0.0712 µM) | 8 (≈ 4.56 µM) | 4 (≈ 2.28 µM) | 1 (≈ 0.57 µM) | 16 (≈ 9.11 µM) | 8 (≈ 4.56 µM) | 4 (≈ 2.28 µM) | 16 (≈ 9.11 µM) | 1 (≈ 0.57 µM) | 0.25 (≈ 0.142 µM) | 0.25 (≈ 0.142 µM) | – |
| CN[C@H](CC(C)C)C(=O)N[C@H]1C(=O)N[C@@H](CC(N)=O)C(=O)N[C@H]2C(=O)N[C@H]3C(=O)N[C@H](C(=O)N[C@H](C(=O)O)c4cc(O)cc(O)c4-c4cc3ccc4O)[C@H](O)c3ccc(c(Cl)c3)Oc3cc2cc(c3O[C@@H]2O[C@H](CO)[C@@H](O)[C@H](O)[C@H]2O[C@H]2C[C@](C)(N)[C@H](O)[C@H](C)O2)Oc2ccc(cc2Cl)[C@H]1O [Vancomycin, reference compound] | – | – | – | – | > 128 | 4 (≈ 2.76 µM) | > 128 | > 128 | > 128 | 4 (≈ 2.76 µM) | > 128 | > 128 | 64 (≈ 44.2 µM) | > 128 | > 128 | > 128 | > 128 | 8 (≈ 5.52 µM) | 4 (≈ 2.76 µM) | 8 (≈ 5.52 µM) | – |
